In publication PMC7306898, “Concentration-Dependent Activity of Hydromethylthionine on Clinical Decline and Brain Atrophy in a Randomized Controlled Trial in Behavioral Variant Frontotemporal Dementia” (Journal of Alzheimer's Disease, 2020):
Like-named read-outs stand apart in the source and are kept apart here.

Assays:
bvFTD patients [1] = assay: Exposure-response and expanded Hill equation analysis; format: in vivo, human
Experimental: The protocol specified that PK plasma sampling was to be conducted only at sites with adequate facilities (i.e., a refrigerated centrifuge and adequate capability to freeze samples reliably). Blinded analyses were conducted at the University of Aberdeen GLP Test Facility. […] The method was validated for use in the Phase III studies over the range 0.2 to 10 ng/ml. […] Model development and estimation of steady state maximum plasma concentration (Cmax,ss) were determined independently by the Institute of Clinical Pharmacodynamics (ICPD, NY, USA). Cmax,ss estimates using a model validated in Phase I studies were based on in-clinic plasma concentration data obtained on Day 1 when the dose-sampling interval was accurately recorded. […] Change in ACE-R, ACE-III, FAQ, MMSE, Modified-CGIC, FRS, whole brain volume (WBV), lateral ventricular volume (LVV), and frontotemporal volume (FTV), as well as UPDRS Part III, were expressed as a function of Cmax,ss estimates grouped into four groups described in the results section. Cmax,ss values outside 3x the interquartile range were excluded from determination of concentration-response relationships, but were included in inferential statistical analyses.
A further analysis was undertaken (HS, BOS) using a modified form of the Hill equation which is commonly used in the analysis of concentration-response data in order to estimate the minimum and maximum plasma concentrations for expected treatment response over 52 weeks. […] In addition, a linear term was added to permit trends occurring at high concentrations to be included in the model. […] The modified Hill equation was applied to the data in the form:
change in parameter = Emin - (Emax x ([C]- 0.29))/(EC50 + ([C] -0.29)) + (A x ([C] -0.29))
where dose is in mg/day and Cmax,ss is in ng/ml units.

bvFTD patients [2] = assay: Addenbrookes Cognitive Examination – III (ACE-III), 52-week Phase III trial; format: in vivo, human
Excerpt: (§1) The two doses were provided in identical blister packages as visually identical oral tablets to be taken for up to 52 weeks. The primary outcome was the Addenbrookes Cognitive Examination – Revised (ACE-R). The Functional Activities Questionnaire (FAQ) and reduction in progression of whole brain atrophy were alternative co-primary outcomes. Other outcomes included: Modified Alzheimer’s Disease Cooperative Study – Clinical Global Impression of Change (Modified-CGIC) determined by a third independent rater; Frontotemporal Dementia Rating Scale (FRS); MMSE (from MMSE items incorporated into ACE-R); Addenbrookes Cognitive Examination – III (a revised version of ACE-R which excludes MMSE items subject to copyright restrictions); change in brain volume measured by MRI in frontal and temporal lobes (FTV) and lateral ventricles (LVV); and the effect of hydromethylthionine in patients with known genetic mutations associated with bvFTD. Blood was collected prospectively for the purpose of population PK analyses.
The primary analyses were specified as a mixed model, repeated-measures analysis with an unstructured covariance matrix and no imputation for missing data. […]

bvFTD patients [3] = assay: Lateral ventricular volume (LVV) change by MRI; format: in vivo, human; settings: Patients receiving 8 mg/day, vs Cmax,ss ≤[…], 52 weeks
Excerpt: as §1
MRI scans were obtained at screening and weeks 16, 32, and 52. The acquisition protocol was standardized across sites and all data were centrally collected, quality-controlled, and analyzed by the imaging core laboratory (Bioclinica). MRI data included a 3D sagittal T1-weighted sequence (using parameters compatible with the ADNI protocol) which was used for all volumetric analyses. […]

[4] = Population PK: plasma-modeled parent MT Cmax,ss; format: in vivo, human; settings: for Cmax: both sexes, human, plasma, oral
Experimental: Blood samples for assessment of parent MT, N-desmethyl MT, and total MT (sum of parent MT and a labile LMT conjugate), were collected from each patient on the first treatment visit (two samples: pre-dose and approximately 3.5 h after the dose) and at each subsequent on-treatment visit. The protocol specified that PK plasma sampling was to be conducted only at sites with adequate facilities (i.e., a refrigerated centrifuge and adequate capability to freeze samples reliably). Blinded analyses were conducted at the University of Aberdeen GLP Test Facility. MT levels in plasma were measured using liquid chromatography-tandem mass spectrometry assay. The method was validated for use in the Phase III studies over the range 0.2 to 10 ng/ml. […] Model development and estimation of steady state maximum plasma concentration (Cmax,ss) were determined independently by the Institute of Clinical Pharmacodynamics (ICPD, NY, USA). Cmax,ss estimates using a model validated in Phase I studies were based on in-clinic plasma concentration data obtained on Day 1 when the dose-sampling interval was accurately recorded. The percentage of patients with Day 1 exposure levels below the lower calibration limit of the assay was used to define a proxy for placebo in post-hoc binary statistical comparisons of patients with low and high exposure to the drug with a view to informing the design of a future placebo-controlled trial. Change in ACE-R, ACE-III, FAQ, MMSE, Modified-CGIC, FRS, whole brain volume (WBV), lateral ventricular volume (LVV), and frontotemporal volume (FTV), as well as UPDRS Part III, were expressed as a function of Cmax,ss estimates grouped into four groups described in the results section. Cmax,ss values outside 3x the interquartile range were excluded from determination of concentration-response relationships, but were included in inferential statistical analyses.

[5] = system: subjects with AD or bvFTD; parameters: method as in Developmental Safety Update Report #3; settings: 1713 subjects randomized to LMTM (or matching placebo), blinded, as of 14 October 2014 ref Developmental Safety Update Report #3; cited from earlier work

## CN(C)c1ccc2c(c1)Sc1cc(N(C)C)ccc1N2 [hydromethylthionine, leuco-methylthioninium bis(hydromethanesulphonate)]
bvFTD patients [1]; 8 mg/day dose, bvFTD
  plasma levels over which there are steep concentration-response relationships on clinical and MRI outcomes: 0.3 to 0.6 ng/mL
bvFTD patients [1]; Hill equation analyses
  dose at which pharmacological activity is predicted to peak in bvFTD: ~30 mg/day
bvFTD patients [1]; Hill equation analysis
  doses at which treatment responses in bvFTD are predicted to be maximal / roughly comparable: 20 to 60 mg/day
bvFTD patients [1]; at 30 mg/day dose
  predicted treatment effect on whole brain atrophy: 18.52 cm^3
bvFTD patients [1]; at 30 mg/day dose, mean, bootstrap analysis
  predicted treatment effect on the FAQ scale: 7.73 units
bvFTD patients [1]; expanded Hill equation
  theoretical dose corresponding to the upper limiting concentration: 301 mg/day
bvFTD patients [1]; expanded Hill equation, 8 mg/day
  lower (minimum) limiting plasma concentration required for treatment response: 0.29 ng/mL
bvFTD patients [1]; expanded Hill equation, whole brain volume, 200 mg/day terciles
  upper limiting concentration at which the treatment effect would be lost: 13.6 ng/mL
bvFTD patients [1]; upper limit of the lowest 35% group at 8 mg/day
  plasma concentration (Cmax,ss) threshold required for clinical pharmacological activity in bvFTD: 0.346 ng/ml
bvFTD patients [2]; 8 mg/day (n = 110), modeled change from baseline at 52 weeks
  ACE-III: Decline±SEM for LMTM 8 mg/day group: –10.70±1.55
bvFTD patients [2]; 200 mg/day (n = 104) vs 8 mg/day, 52 weeks
  ACE-III: Difference±SEM from LMTM 8 mg/day for 200 mg/day: 0.44±2.27
bvFTD patients [3]
  LVV: Difference±SEM for Cmax,ss > […]: –4.12±1.06 cm^3
[4]; 200 mg/day
  Plasma-modeled parent MT Cmax,ss, Range: 6.800 to 14.235 ng/mL
[4]; 80 patients receiving 200 mg/day
  plasma levels at 200 mg/day relative to the highest level seen at 8 mg/day: 16 fold
[4]; 8 mg/day, 8 mg/day – Group 1, read-out: Plasma-modeled parent MT Cmax,ss, Mean (SD)
  Cmax: 0.321 ng/mL
[4]; 8 mg/day, 8 mg/day – Group 1, read-out: Plasma-modeled parent MT Cmax,ss, Range
  Cmax: 0.281 to 0.346 ng/mL
[4]; 8 mg/day, 8 mg/day – Group 2, read-out: Plasma-modeled parent MT Cmax,ss, Mean (SD)
  Cmax: 0.355 ng/mL
[4]; 8 mg/day, 8 mg/day – Group 2, read-out: Plasma-modeled parent MT Cmax,ss, Range
  Cmax: 0.346 to 0.372 ng/mL
[4]; 8 mg/day, 8 mg/day – Group 3, read-out: Plasma-modeled parent MT Cmax,ss, Mean (SD)
  Cmax: 0.387 ng/mL
[4]; 8 mg/day, 8 mg/day – Group 3, read-out: Plasma-modeled parent MT Cmax,ss, Range
  Cmax: 0.373 to 0.409 ng/mL
[4]; 8 mg/day, 8 mg/day – Group 4, read-out: Plasma-modeled parent MT Cmax,ss, Mean (SD)
  Cmax: 0.47 ng/mL
[4]; 8 mg/day, 8 mg/day – Group 4, read-out: Plasma-modeled parent MT Cmax,ss, Range
  Cmax: 0.413 to 0.583 ng/mL
[4]; 200 mg/day, read-out: Plasma-modeled parent MT Cmax,ss, Mean (SD)
  Cmax: 9.04 ng/mL
[4]; 200 mg/day, read-out: Plasma-modeled parent MT Cmax,ss, Range
  Cmax: 6.8 to 14.2 ng/mL
[5]
  cases of possible serotonin toxicity reported as AEs: 2
